Test results taken from PMC4891657, “Orexin 2 Receptor Antagonism is Sufficient to Promote NREM and REM Sleep from Mouse to Man” (Scientific Reports, 2016).
pKd, pKi: −log10 of the molar value.

Experiments:
OX2R [1] = biological target: T1, OX2R (Homo sapiens, UniProt O43614); assay: Inhibition of orexin-peptide-A-induced calcium mobilization in CHO cells, human OX2R; format: cell-based; set-up: expressed in transfected cells; host or cells: CHO-K1; conditions: for fold OX2R selectivity (Kb): OX1R Kb / OX2R Kb
T1 sequence (O43614 1-444): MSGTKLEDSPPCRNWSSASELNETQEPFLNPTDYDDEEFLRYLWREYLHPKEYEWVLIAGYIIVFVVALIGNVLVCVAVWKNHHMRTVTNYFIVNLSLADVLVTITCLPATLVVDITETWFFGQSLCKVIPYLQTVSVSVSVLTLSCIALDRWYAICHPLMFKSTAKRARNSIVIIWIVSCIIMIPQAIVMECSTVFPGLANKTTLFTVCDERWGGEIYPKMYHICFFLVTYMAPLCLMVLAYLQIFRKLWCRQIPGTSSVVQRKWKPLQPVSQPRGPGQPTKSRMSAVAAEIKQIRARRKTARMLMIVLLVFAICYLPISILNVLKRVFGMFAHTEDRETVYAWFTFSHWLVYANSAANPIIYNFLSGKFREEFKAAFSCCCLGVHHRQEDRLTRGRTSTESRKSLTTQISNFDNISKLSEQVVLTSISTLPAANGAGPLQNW
Method: (§1) MK-1064 was evaluated for its ability to inhibit orexin-peptide-A-induced calcium mobilization in CHO cell lines separately expressing OX1R and OX2R from mice, rats, rabbits, dogs, rhesus monkeys and humans.
(§2) Binding and functional blockade of OX1R and OX2R with MK-1064 relative to other 2-SORAs and the DORA, MK-6096, were assessed using membranes from Chinese hamster ovary (CHO)-K1 cells (American Type Tissue Collection, Manassas, VA) transfected to express human, mouse, rat, rabbit, dog, or rhesus monkey OX1R or OX2R receptors, as described previously. The kinetics of binding to human OX2R was assessed by radioligand displacement on CHO-K1 cells expressing the receptor. […] The ON rate analysis was performed by presoaking GF/B filters in 0.3% polyethyleneimine (Sigma) using a Skatron 12-well cell harvester and cold buffer at the indicated time points after addition. For OFF rate determination, binding reactions were allowed to proceed to equilibrium and terminated with 1000x [Kd] of unlabeled antagonist and filtered as above at pre-determined time points. Ultima Gold^TM (PerkinElmer 6013327) scintillation cocktail was added to each filter disc and counted on a PerkinElmer TriCarb 2910 scintillation counter. Data were analyzed using GraphPad® Prism v 6.04 (San Diego, CA, USA). The KON rate was determined according to the equation, KON = (KOBS − KOFF)/[ligand].

OX1R [2] = biological target: T2, OX1R (Canis lupus familiaris, UniProt A0A8I3RSX8); assay: Radio-ligand displacement binding, CHO-K1 membranes, dog OX1R; conditions: read-out: OX1R affinity (Ki)
T2 sequence (A0A8I3RSX8 1-427): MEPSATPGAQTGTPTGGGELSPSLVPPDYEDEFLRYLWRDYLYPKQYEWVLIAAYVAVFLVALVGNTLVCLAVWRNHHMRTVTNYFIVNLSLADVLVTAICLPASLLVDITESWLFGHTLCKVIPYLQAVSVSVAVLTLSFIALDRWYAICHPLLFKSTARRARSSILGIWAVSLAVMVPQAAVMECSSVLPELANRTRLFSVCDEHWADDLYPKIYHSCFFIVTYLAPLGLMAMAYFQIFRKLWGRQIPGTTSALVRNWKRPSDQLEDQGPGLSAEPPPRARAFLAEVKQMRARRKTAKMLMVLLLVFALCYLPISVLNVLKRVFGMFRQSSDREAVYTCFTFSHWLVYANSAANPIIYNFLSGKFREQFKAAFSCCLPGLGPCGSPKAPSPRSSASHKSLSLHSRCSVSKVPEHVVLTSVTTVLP
Method: as §1, §2

OX1R [3] = biological target: T3, OX1R (Mus musculus, UniProt P58307); assay: Radio-ligand displacement binding, CHO-K1 membranes, mouse OX1R; conditions: read-out: OX1R affinity (Ki)
T3 construct: expressed in transfected cells; host or cells: CHO-K1
T3 sequence (P58307 1-416): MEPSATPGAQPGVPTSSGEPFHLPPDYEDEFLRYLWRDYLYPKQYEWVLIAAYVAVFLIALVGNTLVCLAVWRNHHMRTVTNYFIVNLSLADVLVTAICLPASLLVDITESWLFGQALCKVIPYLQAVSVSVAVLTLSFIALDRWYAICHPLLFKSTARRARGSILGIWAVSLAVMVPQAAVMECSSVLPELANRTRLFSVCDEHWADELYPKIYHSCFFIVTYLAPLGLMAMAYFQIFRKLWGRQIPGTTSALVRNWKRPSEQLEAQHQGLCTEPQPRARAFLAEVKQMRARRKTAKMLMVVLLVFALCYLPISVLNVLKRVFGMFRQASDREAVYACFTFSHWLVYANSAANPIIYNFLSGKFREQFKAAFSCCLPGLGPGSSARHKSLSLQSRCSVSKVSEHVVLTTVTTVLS
Method: as §1, §2

OX2R [4] = biological target: T4, OX2R (Mus musculus, UniProt P58308); assay: Radio-ligand displacement binding, CHO-K1 membranes, mouse OX2R; conditions: for fold OX2R selectivity (Ki): OX1R Ki / OX2R Ki; for pKi: read-out: OX2R affinity (Ki)
T4 construct: expressed in transfected cells; host or cells: CHO-K1
T4 sequence (P58308 1-460): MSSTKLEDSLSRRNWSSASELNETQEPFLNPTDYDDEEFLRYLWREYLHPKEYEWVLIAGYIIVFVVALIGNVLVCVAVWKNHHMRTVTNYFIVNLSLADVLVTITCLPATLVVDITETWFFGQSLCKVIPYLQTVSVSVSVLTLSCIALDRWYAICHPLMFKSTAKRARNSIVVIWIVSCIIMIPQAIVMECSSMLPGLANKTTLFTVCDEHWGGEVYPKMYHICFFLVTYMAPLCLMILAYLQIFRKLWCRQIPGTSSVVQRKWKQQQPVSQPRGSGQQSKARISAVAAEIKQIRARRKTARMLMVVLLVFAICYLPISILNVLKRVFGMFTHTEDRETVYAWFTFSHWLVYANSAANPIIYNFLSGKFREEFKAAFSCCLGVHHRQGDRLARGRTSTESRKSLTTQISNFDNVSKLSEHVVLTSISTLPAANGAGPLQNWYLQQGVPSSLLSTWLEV
Method: as §1, §2

OX2R [5] = biological target: T1, OX2R; assay: hOX2R binding kinetics (3H-labelled ligand, ON and OFF rate); set-up: expressed in transfected cells; host or cells: CHO-K1; conditions: for hOX2R binding kinetics KON: KON = (KOBS − KOFF)/[ligand]; for pKd / hOX2R binding kinetics KOFF / hOX2R binding kinetics T1/2OFF / hOX2R binding kinetics T1/2ON: room temperature, pH 7.4
Method: as §2

SMILES	Kb (OX2R [1])	fold OX2R selectivity (Kb) (OX2R [1])	pKi (OX1R [2])	pKi (OX1R [3])	fold OX2R selectivity (Ki) (OX2R [4])	pKi (OX2R [4])	hOX2R binding kinetics KON (OX2R [5])	pKd (OX2R [5])	hOX2R binding kinetics KOFF (OX2R [5])	hOX2R binding kinetics T1/2OFF (OX2R [5])	hOX2R binding kinetics T1/2ON (OX2R [5])
COc1ccc(CNC(=O)c2cc(-c3cncc(C)c3)ncc2-c2ccccc2)nc1OC [2-SORA-7]	12 nM	[363] fold	5.74	5.77	[2040] fold	9.08	–	–	–	–	–
COc1ccc(CNC(=O)c2cc(-c3cc(Cl)cc(Cl)c3)cnc2-c2cccnc2)cc1OC [2-SORA-18]	18 nM	[9] fold	7.07	7.01	[653] fold	9.82	–	–	–	–	–
COc1ccc(CNC(=O)c2cc(-c3cncc(Cl)c3)cnc2-c2ccccn2)nc1OC [MK-1064, 5″-chloro-N-[(5,6-dimethoxypyridin-2-yl)methyl]-2,2′:5′, 3″-terpyridine-3′-carbo xamide]	9 nM	[208] fold	5.89	5.94	[1136] fold	8.99	1.19e+07 min⁻¹	9.29	0.00697 mol⁻¹ min⁻¹	110 min	21.1 min
COc1ccc(CNC(=O)c2cc(-c3cncc(C)c3)ncc2-c2nccs2)nc1OC [MK-3697]	14 nM	–	5.51	5.40	–	8.83	–	8.94	–	54.4 min	24.3 min
Cc1ccc(-c2ncccn2)c(C(=O)N2C[C@H](COc3ccc(F)cn3)CC[C@H]2C)c1 [MK-6096]	11 nM	[1.0] fold	8.57	8.54	[5.2] fold	9.25	9.19e+06 min⁻¹	9.47	0.0188 mol⁻¹ min⁻¹	118.3 min	62.9 min
